Test results as given in BigSolDB 2.1.

CSCCC(NC(C)=O)C(=O)O (racemic)
solubility (mole fraction)
Settings	283.15 K	293.15 K	303.15 K	313.15 K	323.15 K
in 1,4-dioxane	0.0227	0.0428	0.073	0.108	0.167
in 2-butanone	0.00843	0.0131	0.0207	0.0327	0.0568
in acetone	0.0138	0.0215	0.037	0.0587	0.0959
in acetonitrile	0.00292	0.00491	0.00877	0.016	0.0326
in dichloromethane	0.00024	0.00036	0.00052	0.0007	0.00093
in ethanol	0.0453	0.0626	0.0954	0.135	0.184
in ethyl acetate	0.00265	0.00429	0.00641	0.00936	0.0153
in isobutanol	0.0229	0.0345	0.0531	0.0779	0.114
in isopropanol	0.029	0.0436	0.066	0.0984	0.14
in methanol	0.0794	0.105	0.141	0.187	0.262
in methyl acetate	0.00352	0.00525	0.0084	0.0139	0.0243
in n-butanol	0.0247	0.0393	0.0591	0.0888	0.127
in n-pentanol	0.0215	0.0309	0.0465	0.0684	0.103
in n-propanol	0.031	0.0511	0.077	0.115	0.15
in sec-butanol	0.0236	0.0375	0.0568	0.0839	0.121
in water	0.00589	0.008	0.0136	0.0231	0.0543
